Source: US20080069869A1, “Formulations and methods for modulating satiety” (priority 2004, published 2008)
Where two headings read alike, the source gives them in different places.

What was measured:
[1] = cited from earlier work
[2] = system: pancreatic amylase secretion; details: Crawley and Corwin; cited from earlier work
[3] = in vivo; cited from earlier work
[4] = Pharmacokinetic study: plasma CCK-8 levels after one oral enteric-coated capsule (Example 3); type: in vivo, human
Description: Secondarily, it was desired to ascertain the time it would take to reach peak plasma levels. Each individual ingested the capsule in the fasting state (not having eaten for at least 8 hours). Blood was then drawn every 10 minutes for one hour. […] Plasma was drawn off from each tube and frozen. The frozen plasma was sent to Mt. Sinai Hospital in Canada for measurement of CCK-8 levels.

CCKA receptors = biological target: T1, CCKA receptors (Homo sapiens, UniProt P32238); details: de Montigny 1989; cited from earlier work
T1 sequence (P32238 1-428): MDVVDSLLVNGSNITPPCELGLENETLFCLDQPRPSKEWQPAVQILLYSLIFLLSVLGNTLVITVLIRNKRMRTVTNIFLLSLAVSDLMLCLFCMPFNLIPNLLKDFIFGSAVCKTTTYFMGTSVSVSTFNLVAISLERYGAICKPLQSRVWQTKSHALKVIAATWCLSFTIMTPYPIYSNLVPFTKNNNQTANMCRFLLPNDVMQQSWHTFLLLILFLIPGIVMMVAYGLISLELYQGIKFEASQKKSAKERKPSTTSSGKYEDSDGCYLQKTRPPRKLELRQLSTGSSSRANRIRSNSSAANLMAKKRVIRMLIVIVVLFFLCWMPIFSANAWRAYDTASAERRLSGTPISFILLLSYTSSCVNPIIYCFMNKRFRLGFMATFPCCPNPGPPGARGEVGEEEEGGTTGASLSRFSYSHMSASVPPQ

Compound: O[C@H](CS)[C@H](O)CS (racemic) [dithiothreitol]
- increase in absorption and biliary recovery of a tripeptide over control rats ([1]; ileum): four-fold
- increase in absorption and biliary recovery of a tripeptide over control rats ([1]; proximal colon): 70 fold

Compound: Asp-Tyr(SO3H)-Met-Gly-Trp-Met-Asp-Phe-NH2 [CCK-8]
- more potent than unsulfated CCK-8 or CCK-4 in stimulating pancreatic amylase secretion [2]: approximately 1000 fold
- oral bio-availability [3]: less than 1%
- CCK-8 level (plasma) ([4]; Individual #1, 10 minutes post-ingestion, one enteric-coated capsule with 9.2 micrograms CCK-8 and an enzyme inhibitor, fasting): 3.268 picomoles/liter (pm/L)
- CCK-8 level (plasma) ([4]; Individual #1, remaining 5 measurements (every 10 minutes up to one hour), 9.2 micrograms capsule with enzyme inhibitor): detected no CCK-8
- CCK-8 level (plasma) ([4]; Individual #2, 10 minutes post-ingestion, 9.2 micrograms capsule with enzyme inhibitor, fasting): 0.7625 pm/L
- CCK-8 level (plasma) ([4]; Individual #2, 20 minutes, 9.2 micrograms capsule with enzyme inhibitor, fasting): 3.326 pm/L
- CCK-8 level (plasma) ([4]; Individual #2, next 4 measurements (30-60 minutes)): detected no CCK-8
- CCK-8 level (plasma) ([4]; Individual #3 (BMI 24), 10 minutes post-ingestion, 9.2 micrograms capsule with enzyme inhibitor, fasting): 0.0 pm/L
- CCK-8 level (plasma) ([4]; Individual #3 (BMI 24), 20 minutes, 9.2 micrograms capsule with enzyme inhibitor, fasting): 4.375 pm/L
- CCK-8 level (plasma) ([4]; Individual #3, next 4 measurements (30-60 minutes)): detected no CCK-8

Compound: CCK-4: the tetrapeptide, CCK-4 (CCK30-33)
- lower affinity for CCKA receptors than the sulfated form of CCK-8 (CCKA receptors): 10,000 fold
